PubChem BioAssay AID977614 (Broad Institute, 2014)
Activity calls are given as the source filed them.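 The calls were made as follows: active = parasite count per well reduced by over 3 SD from the mean, with host cell number above 80% of untreated; inactive = the rest.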

System: L. donovani amastigotes in THP-1 macrophages, DAPI imaging, 72 h
Experiment: antileishmanial activity in infected macrophages – imaging, THP-1 host macrophages, single concentration (AID 977614);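 also: signal is the parasite per host cell ratio from DAPI stained kinetoplasts and nuclei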

## CCCNC(=O)N1[C@@H](CO)[C@@H]2c3ccccc3N(C(=O)Nc3cccc(Cl)c3)C[C@@H]21
  AC50: > 10 µM (inactive)

## O=C(Nc1cccc(F)c1)N1C[C@@H]2[C@H](c3ccccc31)[C@@H](CO)N2C(=O)Cc1ccccn1
  AC50: > 10 µM (inactive)

## C[C@H]1CN([C@@H](C)CO)C(=O)CCCn2nncc2CO[C@@H]1CN(C)C(=O)Nc1cccc(Oc2ccccn2)c1
  AC50: > 10 µM (inactive)

## C[C@H](CO)N1C[C@H](C)[C@@H](CN(C)C(=O)Oc2ccc3ccccc3c2)OCc2cn(nn2)CCCC1=O
  AC50: > 10 µM (inactive)

## C[C@@H]1CN([C@H](C)CO)C(=O)CCCn2nncc2CO[C@@H]1CN(C)C(=O)c1cc(-c2ccccc2)on1
  AC50: > 10 µM (inactive)

## C[C@H]1CN([C@@H](C)CO)C(=O)CCCn2nncc2CO[C@@H]1CN(C)S(=O)(=O)c1ccc(Oc2ccccc2)nc1
  AC50: > 10 µM (inactive)

## O=C(NC[C@H]1N[C@H](CO)[C@H]1c1ccc(-c2ccccc2F)cc1)c1ccccn1
  AC50: > 10 µM (inactive)

## CCCNC(=O)N(C)C[C@H]1[C@H](c2ccccc2)[C@@H](CO)N1C(=O)c1ccccc1
  AC50: > 10 µM (inactive)

## CN(C[C@@H]1[C@H](c2ccccc2)[C@H](CO)N1Cc1ccccn1)S(C)(=O)=O
  AC50: > 10 µM (inactive)

## C[C@@H]1CN([C@@H](C)CO)C(=O)CCCn2nncc2CO[C@@H]1CN(C)Cc1ccc2c(c1)OCCN2C
  AC50: > 10 µM (inactive)

## CN(C[C@H]1N[C@@H](CO)[C@@H]1c1ccc(C2=CCCC2)cc1)C(=O)c1cccc(F)c1
  AC50: > 10 µM (inactive)

## CCC(=O)N1[C@H](CO)[C@H]2c3ccccc3N(C(=O)Nc3ccc(Cl)cc3)C[C@H]21
  AC50: > 10 µM (inactive)

## CC(C)NC(=O)N1[C@@H]2CN(C)c3ccccc3[C@@H]2[C@@H]1CO
  AC50: > 10 µM (inactive)

## CN(C)CC(=O)N1C[C@H]2[C@@H](c3ccccc31)[C@@H](CO)N2C(=O)c1ccccn1
  AC50: > 10 µM (inactive)

## C[C@H](CO)N1C[C@H](C)[C@@H](CN(C)Cc2cccc3c2OCCCO3)OCc2cnnn2CCCC1=O
  AC50: > 10 µM (inactive)

## CCCNC(=O)N1[C@H](CO)[C@H]2c3ccccc3N(C(=O)Nc3cccc(Cl)c3)C[C@H]21
  AC50: > 10 µM (inactive)

## C[C@H](CO)N1C[C@H](C)[C@@H](CN(C)C(=O)c2ccc(N3CCN(C)CC3)cc2)OCc2cn(nn2)CCCC1=O
  AC50: > 10 µM (inactive)

## O=S(=O)(c1ccccc1)N1[C@@H]2CNc3ccccc3[C@@H]2[C@@H]1CO
  AC50: > 10 µM (inactive)

## Cc1noc(C)c1S(=O)(=O)N(C)C[C@@H]1OCc2cnnn2CCCC(=O)N([C@@H](C)CO)C[C@H]1C
  AC50: > 10 µM (inactive)

## O=C(c1ccncc1)N1C[C@@H]2[C@H](c3ccccc31)[C@H](CO)N2Cc1ccccc1F
  AC50: > 10 µM (inactive)

## O=C(C1CCOCC1)N1C[C@H]2[C@@H](c3ccccc31)[C@@H](CO)N2C(=O)Nc1ccccc1F
  AC50: > 10 µM (inactive)

## COc1ccc(CN(C)C[C@H]2OCc3cnnn3CCCC(=O)N([C@H](C)CO)C[C@H]2C)cc1
  AC50: > 10 µM (inactive)

## O=C(c1ccncc1)N1C[C@@H]2[C@H](c3ccccc31)[C@@H](CO)N2C(=O)CN1CCOCC1
  AC50: > 10 µM (inactive)

## C[C@H]1CN([C@@H](C)CO)C(=O)CCCn2cc(nn2)CO[C@H]1CN(C)Cc1ccccc1
  AC50: > 10 µM (inactive)

## C[C@@H]1CN([C@@H](C)CO)C(=O)CCCn2nncc2CO[C@H]1CN(C)Cc1ccc(C(=O)Nc2ccccc2N)cc1
  AC50: > 10 µM (inactive)

## COc1ccccc1S(=O)(=O)N(C)C[C@H]1OCc2cn(nn2)CCCC(=O)N([C@H](C)CO)C[C@@H]1C
  AC50: > 10 µM (inactive)

## O=C(CC(F)(F)F)N1C[C@H]2[C@@H](c3ccccc31)[C@H](CO)N2C(=O)c1ccncc1
  AC50: > 10 µM (inactive)

## COc1ccc(NC(=O)N(C)C[C@@H]2OCc3cnnn3CCCC(=O)N([C@@H](C)CO)C[C@H]2C)c(OC)c1
  AC50: > 10 µM (inactive)

## O=C(CN1CCOCC1)N1[C@@H](CO)[C@@H]2c3ccccc3NC[C@@H]21
  AC50: > 10 µM (inactive)

## COc1ccccc1S(=O)(=O)N(C)C[C@@H]1OCc2cn(nn2)CCCC(=O)N([C@@H](C)CO)C[C@@H]1C
  AC50: > 10 µM (inactive)

## C[C@@H]1CN([C@@H](C)CO)C(=O)CCCn2nncc2CO[C@@H]1CN(C)S(=O)(=O)c1ccccc1C#N
  AC50: > 10 µM (inactive)

## COc1ccccc1CN1[C@H](CO)[C@H]2c3ccccc3N(C(=O)c3cccnc3)C[C@H]21
  AC50: > 10 µM (inactive)

## CCC(=O)N1[C@@H]2CN(C(=O)Nc3ccc(Cl)cc3)c3ccccc3[C@@H]2[C@@H]1CO
  AC50: > 10 µM (inactive)

## COc1ccc(CN(C)C[C@H]2OCc3cnnn3CCCC(=O)N([C@@H](C)CO)C[C@@H]2C)cc1
  AC50: > 10 µM (inactive)

## C[C@H]1CN([C@@H](C)CO)C(=O)CCCn2cc(nn2)CO[C@@H]1CN(C)C(=O)Nc1cccc2ccccc12
  AC50: > 10 µM (inactive)

## OC[C@@H]1[C@@H]2c3ccccc3NC[C@@H]2N1Cc1cccnc1
  AC50: > 10 µM (inactive)

## O=C(NC[C@H]1[C@H](c2ccccc2)[C@@H](CO)N1Cc1ccccn1)C1CCCC1
  AC50: > 10 µM (inactive)

## C[C@@H]1CN([C@@H](C)CO)C(=O)CCCn2cc(nn2)CO[C@@H]1CN(C)S(=O)(=O)c1cccc(C#N)c1
  AC50: > 10 µM (inactive)
